Reference: US9993494B2, “Compositions and methods for treating fibrotic disease” (eFFECTOR Therapeutics, Inc., priority 2014, dated 2018)

System: normal human lung fibroblasts
Assay: Ribosomal profiling: translational efficiency in TGFβ-treated fibroblasts
Type: cell-based
Conditions: TGFβ-treated fibroblasts
Method: Ribosomal profiling allows for measurement of changes in transcription and translation on a genome-wide basis accompanying TGFβ-dependent transformation of fibroblasts to myofibroblasts. Ribosomal profiles of the TGFβ-treated fibroblasts from Example 1 (about 6×10^6 cells/10 cm plate) were prepared and analyzed for changes in translational efficiencies with respect to potential disease-associated cellular changes accompanying this TGFβ-induced transformation.
Briefly, cells were washed with cold PBS supplemented with cycloheximide and lysed with 1× mammalian cell lysis buffer for 10 minutes on ice. Lysates were clarified by centrifugation for 10 minutes at 14,000 rpm and supernatants were collected. Cell lysates were processed to generate ribosomal protected fragments and total mRNA according to the instructions included with the ARTseq Ribosome Profiling Kit (Illumina, San Diego, Calif.). Sequencing of total RNA (RNA) and of ribosome-protected fragments of RNA (RPF) was carried out using RNA-Seq methodology according to the manufacturer's instructions (Illumina). To analyze the ribosomal profiles, RNA-Seq reads were processed with tools from the FASTX-Toolkit (fastq_quality_trimmer, fastx_clipper and fastx_trimmer). Unprocessed and processed reads were evaluated for a variety of quality measures using FastQC, and processed reads were mapped to the human genome using TopHat (see, e.g., Trapnell et al., Bioinformatics 25:1105, 2009). Gene-by-gene assessment of the number of fragments strictly and uniquely mapping to the coding region of each gene was conducted using HTSeq-count, a component of the HTSeq package. […] Genes with low counts in either RPF or RNA were excluded from differential analyses. Pathway and network analyses of differential data were conducted using Ingenuity Pathway Analysis (IPA).

Cc1cc(C2CCCCC2)n(O)c(=O)c1.NCCO [CPX, ciclopirox oloamine]
renormalizing the translational profile of NECAB3 (ENSG00000125967): − (− = <0.9) | renormalizing the translational profile of COX7C (ENSG00000127184): − (− = <0.9) | renormalizing the translational profile of LIF (ENSG00000128342): − (− = <0.9) | renormalizing the translational profile of MTUS1 (ENSG00000129422): − (− = <0.9) | renormalizing the translational profile of ARHGEF6 (ENSG00000129675): − (− = <0.9) | renormalizing the translational profile of RPL36 (ENSG00000130255): − (− = <0.9) | renormalizing the translational profile of GDF15 (ENSG00000130513): − (− = <0.9) | renormalizing the translational profile of ASS1 (ENSG00000130707): − (− = <0.9) | renormalizing the translational profile of EIF2S3 (ENSG00000130741): − (− = <0.9) | renormalizing the translational profile of RPL27 (ENSG00000131469): − (− = <0.9) | renormalizing the translational profile of MATN3 (ENSG00000132031): − (− = <0.9) | renormalizing the translational profile of PPARG (ENSG00000132170): − (− = <0.9) | renormalizing the translational profile of KDM6B (ENSG00000132510): − (− = <0.9) | renormalizing the translational profile of RARRES3 (ENSG00000133321): − (− = <0.9) | renormalizing the translational profile of BIVM (ENSG00000134897): + (+ = 0.9 to 1.5) | renormalizing the translational profile of ATP5G2 (ENSG00000135390): − (− = <0.9) | renormalizing the translational profile of KRT7 (ENSG00000135480): ++ (++ = 1.5 to 2.0) | renormalizing the translational profile of HNRNPA1 (ENSG00000135486): − (− = <0.9) | renormalizing the translational profile of IL6 (ENSG00000136244): − (− = <0.9) | renormalizing the translational profile of RPL35 (ENSG00000136942): − (− = <0.9) | renormalizing the translational profile of NOV (ENSG00000136999): − (− = <0.9) | renormalizing the translational profile of IER3 (ENSG00000137331): − (− = <0.9) | renormalizing the translational profile of DDX60 (ENSG00000137628): − (− = <0.9) | renormalizing the translational profile of RPLP1 (ENSG00000137818): − (− = <0.9) | renormalizing the translational profile of PAQR5 (ENSG00000137819): + (+ = 0.9 to 1.5) | renormalizing the translational profile of AOX1 (ENSG00000138356): − (− = <0.9) | renormalizing the translational profile of FGF5 (ENSG00000138675): − (− = <0.9) | renormalizing the translational profile of PDE5A (ENSG00000138735): − (− = <0.9) | renormalizing the translational profile of GAS2L3 (ENSG00000139354): − (− = <0.9) | renormalizing the translational profile of DIAPH3 (ENSG00000139734): − (− = <0.9) | renormalizing the translational profile of MYO19 (ENSG00000141140): − (− = <0.9) | renormalizing the translational profile of RPL13A (ENSG00000142541): − (− = <0.9) | renormalizing the translational profile of RPL11 (ENSG00000142676): − (− = <0.9) | renormalizing the translational profile of ACTA1 (ENSG00000143632): + (+ = 0.9 to 1.5) | renormalizing the translational profile of PLEKHA6 (ENSG00000143850): + (+ = 0.9 to 1.5) | renormalizing the translational profile of RPL32 (ENSG00000144713): − (− = <0.9) | renormalizing the translational profile of RPL37 (ENSG00000145592): − (− = <0.9) | renormalizing the translational profile of BTF3 (ENSG00000145741): − (− = <0.9) | renormalizing the translational profile of HIGD2A (ENSG00000146066): − (− = <0.9) | renormalizing the translational profile of CREB5 (ENSG00000146592): − (− = <0.9) | renormalizing the translational profile of DENND2A (ENSG00000146966): − (− = <0.9) | renormalizing the translational profile of RPL10 (ENSG00000147403): − (− = <0.9) | renormalizing the translational profile of EIF3H (ENSG00000147677): − (− = <0.9) | renormalizing the translational profile of RPL7A (ENSG00000148303): − (− = <0.9) | renormalizing the translational profile of EIF3M (ENSG00000149100): − (− = <0.9) | renormalizing the translational profile of FAU (ENSG00000149806): − (− = <0.9) | renormalizing the translational profile of CCDC102B (ENSG00000150636): − (− = <0.9) | renormalizing the translational profile of FRMD4A (ENSG00000151474): + (+ = 0.9 to 1.5) | renormalizing the translational profile of HOMER1 (ENSG00000152413): − (− = <0.9) | renormalizing the translational profile of PLEKHH2 (ENSG00000152527): − (− = <0.9) | renormalizing the translational profile of ANKH (ENSG00000154122): − (− = <0.9) | renormalizing the translational profile of ABCA6 (ENSG00000154262): − (− = <0.9) | renormalizing the translational profile of OBSCN (ENSG00000154358): + (+ = 0.9 to 1.5) | renormalizing the translational profile of ADAMTS5 (ENSG00000154736): + (+ = 0.9 to 1.5) | renormalizing the translational profile of OXA1L (ENSG00000155463): − (− = <0.9) | renormalizing the translational profile of C9orf85 (ENSG00000155621): − (− = <0.9) | renormalizing the translational profile of RPL30 (ENSG00000156482): − (− = <0.9) | renormalizing the translational profile of EEF1A1 (ENSG00000156508): − (− = <0.9) | renormalizing the translational profile of NRG1 (ENSG00000157168): − (− = <0.9) | renormalizing the translational profile of ADAMTS4 (ENSG00000158859): − (− = <0.9) | renormalizing the translational profile of RPL8 (ENSG00000161016): − (− = <0.9) | renormalizing the translational profile of RPL26 (ENSG00000161970): − (− = <0.9) | renormalizing the translational profile of RPL29 (ENSG00000162244): − (− = <0.9) | renormalizing the translational profile of CAMK2N1 (ENSG00000162545): − (− = <0.9) | renormalizing the translational profile of IGFBP7 (ENSG00000163453): − (− = <0.9) | renormalizing the translational profile of RPL22L1 (ENSG00000163584): − (− = <0.9)
